Data set [1] deals with T1, presynaptic α2 -adrenergic receptors (Cavia porcellus, UniProt Q60474).
T1 construct: Stimulation of a guinea-pig ileum; from tissue; host or cells: guinea-pig ileum longitudinal muscle strips
T1 sequence (Q60474 1-464): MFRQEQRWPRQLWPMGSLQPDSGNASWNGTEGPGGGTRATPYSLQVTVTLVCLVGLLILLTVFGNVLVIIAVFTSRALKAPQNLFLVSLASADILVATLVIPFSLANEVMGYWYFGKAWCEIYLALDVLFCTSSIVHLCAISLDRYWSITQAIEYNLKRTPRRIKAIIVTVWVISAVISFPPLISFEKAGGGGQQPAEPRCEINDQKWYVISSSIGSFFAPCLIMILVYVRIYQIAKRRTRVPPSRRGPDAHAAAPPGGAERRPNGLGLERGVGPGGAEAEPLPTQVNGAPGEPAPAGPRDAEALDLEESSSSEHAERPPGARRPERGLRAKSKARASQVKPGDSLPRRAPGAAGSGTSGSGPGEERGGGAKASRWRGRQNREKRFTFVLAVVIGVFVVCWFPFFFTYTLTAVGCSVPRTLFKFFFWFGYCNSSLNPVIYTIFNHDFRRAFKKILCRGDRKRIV
Put plainly: Inhibition of the contraction of electrically stimulated guinea-pig ileum. An excerpt:
(c) Stimulation of a guinea-pig ileum. Longitudinal muscles strips attached to an isometric strain gauge are suspended in Tyrode's solution and are stretched under a tension of 1 g (G. M. DREW. Brit. J. Pharmacol. 64, (1978), 293-300; M. ANDREJAK et al., Naunyn-Schmiedelberg's Arch. Pharmacol. 314, (1980), 83-87).
Electrical stimulation of the parasympathetic nerves associated with the ileum fragments causes a contraction of the muscle. This contraction is reduced in the presence of a presynaptic α2 -agonist and the magnitude by which the contraction is reduced depends on the concentration of the agonist used. This effect is antagonized by the simultaneous presence of an α2 -antagonist such as α-yohimbine. The compounds to be studied have been tested at increasing concentrations ranging from 10^-10 to 10^-3 mole/l.
The concentration (IC50 in mole/l) that reduces by 50% the intensity of the contraction of the muscle is determined.
In the presence of α-yohimbine at a concentration of 10^-6 mole/l, the concentration of the compounds A or B, for example, that is required for reducing muscle contraction intensity by 50% is higher, and becomes greater than 10^-6 mole/l, which gives additional confirmation that the compounds of the invention act really at the level of the presynaptic α2 -adrenergic receptors.

A further data set deals with male NMRI mice. Put plainly: Toxicity, Irwin's test (lethal dose). The data set is classed as in vivo. The note with it: intraperitoneal. As for the experimental part:
5. Toxicity. The toxicity of the compounds according to the present invention has been determined in male NMRI mice by means of Irwin's test (S. IRWIN, Psychopharmacologia, 13, (1968), 222-257).
Progressive doses of the test compound are administered intraperitoneally to groups of three mice until the lethal dose is reached (dose causing the death of two out of three animals within 48 hours). In Table IX below, the lethal dose in mg/kg found for the compounds of the invention is given. It can be seen from this Table that the compounds of the invention are not very toxic.

For another data set, the system named is myocardial ischemia. Put plainly: Artificially induced acute coronary insufficiency in an awake dog (ST-segment elevation). The note with it: Canis lupus familiaris, 0.1 h, intravenous, 6 min coronary occlusion, groups of ten animals, read-out: DE20 (dose producing a mean reduction of at least 20% of the ST-segment elevation). The data set is classed as in vivo. An excerpt:
Because of the reduction in the oxygen supply which results from this, the occlusion produces myocardial ischemia which is expressed on the electrocardiogram by a reproducible and quantifiable ST-segment elevation. The anti-ischemic action of a compound results in a reduction of the magnitude of the ST-segment elevation. (P. R. MAROKO and E. BRAUNWALD, Circulation, 53, (1976, Suppl. I), 162-168; S. E. EPSTEIN et al., Circulation, 53, (1976, Suppl. I), 191-197).

Data set [2] addresses T1, presynaptic α2 -adrenergic receptors. Put plainly: Stimulation of the isolated guinea-pig atria (reduction in tachycardia). The note with it: isolated guinea-pig atria, electrical stimulation; read-out: IC30 (30% reduction in the maximum tachycardia). An excerpt: (b) Stimulation of the isolated guinea-pig atria. The release of noradrenalin at the level of the nerve endings is mediated by a feedback regulating mechanism through the presynaptic α2 -adrenergic receptors. […] Ed. D. S. DAVIES, J. L. REID, Pitman, London.
The electrical stimulation of the isolated guinea-pig atria induces a release of noradrenalin which results in an increase in the rate of the heart beat (tachycardia). This tachycardia is inhibited by an α2 -agonist such as, for example, clonidine, in a proportion which depends on the dose of the agonist used. The action of the α2 -agonist may be limited in the presence of an α2 -specific antagonist such as α-yohimbine.
The in vitro activity of the compounds of the invention on the presynaptic α2 -adrenergic receptors has been studied on the isolated guinea-pig atria, electrically stimulated according to the method described by I. C. MEDGETT et al., Naunyn-Schmiedeberg's Arch. Pharmacol. 304, (1978), 215-221. The compound to be studied is tested in increasing concentrations ranging from 10^-10 to 10^-3 mole/l. The concentration (IC30 in mole/l) which causes a 30% reduction in the maximum tachycardia obtained initially during the electrical stimulation of the atria in the absence of the compound to be tested, is determined.
On the other hand, in the presence of a concentration of 10^-6 mole/l of α-yohimbine, the concentration of compound A necessary to obtain a reduction of 30% in the tachycardia is greater than 10^-7 mole/l.

In data set [3] the test system is stenosis at the level of a coronary artery. The data set is described as follows: Effort trial on a moving belt in dogs with coronary artery stenosis. The following applies: maximum effort at 12 Km/h for 1 minute. The class given is in vivo, dog. As for the experimental part: (b) Effort trial on a moving belt. In this test, a group of at least four dogs is used (equipped with intracardiac electrodes), the dogs having an organic stenosis at the level of a coronary artery. This stenosis causes imbalance between the demand and supply of oxygen when the animal is required to make an effort. This imbalance is expressed on the electrocardiogram by an increase in the ST-segment.
In the trial, the dog runs at a speed of 12 km/h on a moving belt having a slope of 15°. This maximum effort is required for one minute. During the trial, the increase in the ST-segment is recorded, together with the natural increase in the pulse rate. The experiment is repeated at least four times, and the mean of the values obtained is taken as reference (100%) for the group of animals. The animals are then allowed to rest for a minimum of 24 hours before being subjected to a new effort trial under the influence of the compound to be studied.
The compound to be studied is administered slowly (over 1 minute) by intravenous injection 5 minutes before the new effort trial. In the course of the latter, the variations in the same parameters are recorded.

The mark [4] stands for this setting: guinea-pig ileum, electrical stimulation, read-out: IC50 (reduces by 50% the intensity of the contraction of the muscle).

pIC50: −log10 of the molar value. Where two headings read alike, the source gives them in different places.

`Cl.O=C(NO)c1cccc(Cc2c[nH]cn2)c1O` [M, N,2-dihydroxy-3-[(1H-imidazol-4-yl)methyl]-benzamide hydrochloride]: the pIC50 in data set [1] (setting [4]) is 6.40. For the same molecule, the “lethal dose (death of two out of three animals within 48 hours)” value (from here on “lethal dose”) with male NMRI mice is reported as > 288 mg/kg.

For `CC(c1c[nH]cn1)c1cccc(C(N)=O)c1O.Cl` (single isomer, unassigned; (+)) [P, (+)-2-hydroxy-3-[1-(1H-imidazol-4-yl)ethyl]-benzamide hydrochloride], the pIC50 in data set [1] (setting [4]) is 8.70. Moreover, the “lethal dose” value with male NMRI mice is on record as 294 mg/kg.

Consider `NC(=O)c1cc(Cc2c[nH]cn2)ccc1O` [G, 2-hydroxy-5-[(1H-imidazol-4-yl)methyl]-benzamide], for which the ED20 with myocardial ischemia is < 1 µmol/kg. Further, the “lethal dose” value in the data set with male NMRI mice is 651 mg/kg.

As for `Cc1ccc(C(N)=O)c(O)c1Cc1c[nH]cn1` [L, 2-hydroxy-3-[(1H-imidazol-4-yl)methyl]-4-methylbenzamide], in data set [1] (setting [4]), the pIC50 was 7.52. The “lethal dose” value in the data set with male NMRI mice is recorded as 231 mg/kg.

For `Cl.O=C(NCCO)c1cccc(Cc2c[nH]cn2)c1O` [E, 2-hydroxy-N-(2-hydroxyethyl)-3-[(1H-imidazol-4-yl)methyl]-benzamide hydrochloride], in the data set with myocardial ischemia, the ED20 was < 3 µmol/kg. The pIC50 in data set [1] (setting [4]) was 4.22. Besides, the “lethal dose” value in the data set with male NMRI mice is listed as 893 mg/kg.

As to `Cc1ccc(Cc2c[nH]cn2)c(O)c1C(N)=O.Cl` [K, 2-hydroxy-3-[(1H-imidazol-4-yl)methyl]-6-methylbenzamide hydrochloride], the ED20 with myocardial ischemia came to 0.32 µmol/kg. Also, in the data set on male NMRI mice, the “lethal dose” value is reported as > 268 mg/kg.

Regarding `COc1c(Cc2c[nH]cn2)cccc1C(N)=O.Cl` [F, 3-[(1H-imidazol-4-yl)methyl]-2-methoxybenzamide hydrochloride], in the data set on myocardial ischemia, the ED20 was < 3 µmol/kg. The IC30 (as a rule, the concentration at which the effect reaches the 30% level) in data set [2] is 70 nM. Further, the pIC50 in data set [1] (setting [4]) is 4.15. Further, the “lethal dose” value with male NMRI mice was determined as 802 mg/kg.

As to `CN(C)C(=O)c1cccc(Cc2c[nH]cn2)c1O` [H, 2-hydroxy-3-[(1H-imidazol-4-yl)methyl]-N,N-dimethylbenzamide], the “lethal dose” value in the data set with male NMRI mice was 245 mg/kg.

On to `CC(C)NCC(O)COc1cccc2ccccc12` (stereo not drawn) [propranolol, 1-(isopropylamino)-3-(1-naphthyloxy)-2-propanol, reference compound], for which, in the data set on myocardial ischemia, the ED20 was 2 µmol/kg. Further, in data set [3] (dose 1.0 μmole/kg i.v.), the “reduction in ST-segment” value turned out to be 74% and the “reduction in the pulse rate” value was 35 beats/min.

With `Cc1c(Cc2c[nH]cn2)ccc(O)c1C(N)=O.Cl` [O, 6-hydroxy-3-[(1H-imidazol-4-yl)methyl]-2-methylbenzamide hydrochloride], the “lethal dose” value with male NMRI mice is > 268 mg/kg.

With `Cl.NC(=O)c1c(O)ccc(Cc2c[nH]cn2)c1O` [I, 2,6-dihydroxy-3-[(1H-imidazol-4-yl)methyl]-benzamide hydrochloride], the ED20 in the data set on myocardial ischemia turned out to be 0.32 µmol/kg. In addition, the pIC50 in data set [1] (setting [4]) was 6.52. In the data set on male NMRI mice, the “lethal dose” value is > 270 mg/kg.

Consider `Clc1cccc(Cl)c1N=C1NCCN1` [clonidine, reference compound], for which the IC30 in data set [2] was found to be 3.2 nM. Also, the pIC50 in data set [1] (setting [4]) is 7.70.

Turning to `CC(C)(C)c1cc(Cc2c[nH]cn2)c(O)c(C(N)=O)c1` [J, 5-tert-butyl-2-hydroxy-3-[(1H-imidazol-4-yl)methyl]-benzamide], the pIC50 in data set [1] (setting [4]) was 4.52.

On to `CC(c1c[nH]cn1)c1cccc(C(N)=O)c1O.Cl` (stereo not drawn) [B, 2-hydroxy-3-[1-(1H-imidazol-4-yl)ethyl]-benzamide hydrochloride], for which the ED20 in the data set on myocardial ischemia was 0.02 µmol/kg. Further, the concentration for an effect of 30% (IC30) in data set [2] is 0.75 nM. Moreover, the pIC50 in data set [1] (setting [4]) was 8.52; in data set [1] (in the presence of 10^-6 mole/l of α-yohimbine, read-out: concentration required for reducing muscle contraction intensity by 50%), < 6.00. Moreover, the “lethal dose” value in the data set with male NMRI mice amounted to 267 mg/kg.

Consider `NNC(=O)c1cccc(Cc2c[nH]cn2)c1O` [Compound D, 2-hydroxy-3-[(1H-imidazol-4-yl)methyl]-benzohydrazide], for which, in the data set on myocardial ischemia, the ED20 was 3 µmol/kg. For the same molecule, the concentration for an effect of 30% (IC30) in data set [2] stood at 220 nM. Moreover, the “lethal dose” value in the data set with male NMRI mice turned out to be 232 mg/kg.

For the molecule `CNC(=O)c1cccc(Cc2c[nH]cn2)c1O.Cl` [C, 2-hydroxy-3-[(1H-imidazol-4-yl)methyl]-N-methylbenzamide hydrochloride], in the data set with myocardial ischemia, the ED20 amounted to 0.3 µmol/kg. In data set [3] (dose 0.32 μmole/kg i.v.), the “reduction in ST-segment” value was found to be 50% and the “reduction in the pulse rate” value is on record as 1 beats/min. Further, in data set [2], the IC30 stood at 130 nM. In addition, in the data set with male NMRI mice, the “lethal dose” value is recorded as 267 mg/kg.

As to `CC(c1c[nH]cn1)c1ccc(O)c(C(N)=O)c1O.Cl` (stereo not drawn) [N, 2,6-dihydroxy-3-[1-(1H-imidazol-4-yl)ethyl]-benzamide hydrochloride], the “lethal dose” value in the data set on male NMRI mice amounted to 284 mg/kg.

For the origin of these results see patent US4923865A, “Substituted 1-(1H-imidazol-4-yl)alkyl-benzamides as anti-ischemics and as alpha-2-adrenergic receptor agonists” (U C B Societe Anonyme, priority 1988, dated 1990).
